Drawing on patent publication EP0151996A2, “Process for the Preparation of a double-chain plasminogen activator” (Asahi Kasei Kogyo Kabushiki Kaisha, priority 1984, dated 1985), this text covers IC50 for 2 compounds.

Where two headings read alike, the source gives them in different places.

In test [1] the target is T1, single-chain plasminogen activator (Homo sapiens, UniProt P00750).
T1 construct: culturing human normal tissue derived cells such as cells derived from human embryonic kidney, intestines, lungs; endogenous in cells; host or cells: human normal tissue derived cells (e.g. human embryonic kidney or lung cells); secreted protein purified from the culture liquor in the presence of aprotinin
T1 sequence (P00750 36-562): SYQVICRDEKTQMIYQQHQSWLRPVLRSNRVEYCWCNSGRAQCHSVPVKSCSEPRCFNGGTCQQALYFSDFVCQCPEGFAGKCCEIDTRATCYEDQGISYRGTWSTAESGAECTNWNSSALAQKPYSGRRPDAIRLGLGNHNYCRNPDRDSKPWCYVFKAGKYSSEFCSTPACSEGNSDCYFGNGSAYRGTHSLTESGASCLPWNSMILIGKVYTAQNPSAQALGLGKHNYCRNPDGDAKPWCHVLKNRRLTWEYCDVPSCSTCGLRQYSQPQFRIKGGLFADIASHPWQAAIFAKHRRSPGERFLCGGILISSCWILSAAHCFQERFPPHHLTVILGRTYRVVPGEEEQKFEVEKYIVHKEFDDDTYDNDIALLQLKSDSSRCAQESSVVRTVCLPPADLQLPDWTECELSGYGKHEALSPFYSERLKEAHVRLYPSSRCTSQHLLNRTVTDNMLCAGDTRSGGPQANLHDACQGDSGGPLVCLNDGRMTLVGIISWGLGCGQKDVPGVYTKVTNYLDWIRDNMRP
The test can be described thus: Influence of proteinase inhibitors on hydrolysis of Boc-Phe-Ser-Arg-MCA, single-chain form. In kind it is biochemical. How it is done:
(§1) To 50 µℓ of either each of the substances of this invention (100 U/mt) or urokinase (100 IU/mℓ) were added 50 µℓ of one of a number of solutions of various proteinase inhibitors and 300 µℓ of a 0.05 M tris-HCt buffer (pH 8.0) containing 0.1 M sodium chloride, and each reaction was effected at 37°C for 5 minutes. Thereafter, 100 µℓ of 0.1 mM of Boc-Phe-Ser-Arg-MCA (Peptide Institute, Inc.) was added, and each reaction was effected at 37°C.for 60 minutes. Thereafter, 0.5 mℓ of 20% acetic acid was added to terminate the reaction which was then measured for the formed aminomethylcoumarin at an excitation wavelength of 370 nm, a slit width of 2 nm, an emission wavelength of 460 nm and a slit width of 2 nm to determine the hydrolysis activity.
(§2) The concentrations (IC50) of the proteinase inhibitors which inhibit 50% of the activity of the substances of this invention were determined and the results are shown in Table 2.

Test [2] addresses T2, double-chain plasminogen activator (Homo sapiens, UniProt P00750).
T2 construct: endogenous in cells; host or cells: human normal tissue derived cells (e.g. human embryonic kidney or lung cells); secreted protein purified from the culture liquor and converted by enzyme (plasmin) treatment or incubation
The test can be described thus: Influence of proteinase inhibitors on hydrolysis of Boc-Phe-Ser-Arg-MCA, double-chain form. In kind it is biochemical. The protocol: as §1, §2

T2 sequence (P00750 311-562 limits assumed): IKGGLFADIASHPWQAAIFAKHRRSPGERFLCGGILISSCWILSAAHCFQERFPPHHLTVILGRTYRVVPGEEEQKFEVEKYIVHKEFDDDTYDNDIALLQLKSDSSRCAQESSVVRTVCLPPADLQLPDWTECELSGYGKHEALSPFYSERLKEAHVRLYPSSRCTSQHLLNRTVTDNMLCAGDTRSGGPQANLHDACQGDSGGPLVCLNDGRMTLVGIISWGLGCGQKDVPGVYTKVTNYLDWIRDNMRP
T2 sequence (P00750 36-310 partner limits assumed): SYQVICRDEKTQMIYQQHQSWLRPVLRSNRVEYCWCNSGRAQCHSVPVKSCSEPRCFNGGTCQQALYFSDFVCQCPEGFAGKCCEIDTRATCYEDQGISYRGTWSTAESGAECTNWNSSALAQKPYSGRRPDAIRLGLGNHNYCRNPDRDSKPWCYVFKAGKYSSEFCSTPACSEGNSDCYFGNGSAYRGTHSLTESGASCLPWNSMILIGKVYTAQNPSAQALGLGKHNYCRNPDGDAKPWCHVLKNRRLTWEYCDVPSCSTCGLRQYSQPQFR

A word on the IC50: it is the concentration at which inhibition is half-maximal. Turning to `CCOC(=O)c1ccc(OC(=O)CCCCCNC(=N)N)cc1` [FOY], the IC50 in test [1] (Single-Chain Structure 100 U/mℓ, substrate Boc-Phe-Ser-Arg-MCA, 37°C 60 minutes, read-out: IC50) was determined as 17 µM; in test [2] (Double-Chain Structure 100 U/mℓ, substrate Boc-Phe-Ser-Arg-MCA, 37°C 60 minutes, read-out: IC50), 92 µM.

Take `CC(=O)N[C@@H](CC(C)C)C(=O)N[C@@H](CC(C)C)C(=O)N[C@H](C=O)CCCNC(=N)N` [Leupeptin]: the values for the IC50 in test [1] and in test [2] were 280 µM and 570 µM, respectively.
